From patent publication US11713338B2, “Cyclic peptides multimers targeting α-4-β-7 integrin” (priority 2016, dated 2023)
Read-outs that look alike come from different tables or passages of the source.

Tests used:
[1] = target: T1, integrin α4β7 (RPMI8866 human cells adhering to MAdCAM-1) (Homo sapiens, UniProt P13612+P26010); assay: Integrin α4β7-MAdCAM cell adhesion assay (RPMI8866 cells); type: cell-based
T1 construct: RMP18866 cells, which express integrin α4β7; host or cells: RPMI8866
T1 sequence (P13612 34-1032): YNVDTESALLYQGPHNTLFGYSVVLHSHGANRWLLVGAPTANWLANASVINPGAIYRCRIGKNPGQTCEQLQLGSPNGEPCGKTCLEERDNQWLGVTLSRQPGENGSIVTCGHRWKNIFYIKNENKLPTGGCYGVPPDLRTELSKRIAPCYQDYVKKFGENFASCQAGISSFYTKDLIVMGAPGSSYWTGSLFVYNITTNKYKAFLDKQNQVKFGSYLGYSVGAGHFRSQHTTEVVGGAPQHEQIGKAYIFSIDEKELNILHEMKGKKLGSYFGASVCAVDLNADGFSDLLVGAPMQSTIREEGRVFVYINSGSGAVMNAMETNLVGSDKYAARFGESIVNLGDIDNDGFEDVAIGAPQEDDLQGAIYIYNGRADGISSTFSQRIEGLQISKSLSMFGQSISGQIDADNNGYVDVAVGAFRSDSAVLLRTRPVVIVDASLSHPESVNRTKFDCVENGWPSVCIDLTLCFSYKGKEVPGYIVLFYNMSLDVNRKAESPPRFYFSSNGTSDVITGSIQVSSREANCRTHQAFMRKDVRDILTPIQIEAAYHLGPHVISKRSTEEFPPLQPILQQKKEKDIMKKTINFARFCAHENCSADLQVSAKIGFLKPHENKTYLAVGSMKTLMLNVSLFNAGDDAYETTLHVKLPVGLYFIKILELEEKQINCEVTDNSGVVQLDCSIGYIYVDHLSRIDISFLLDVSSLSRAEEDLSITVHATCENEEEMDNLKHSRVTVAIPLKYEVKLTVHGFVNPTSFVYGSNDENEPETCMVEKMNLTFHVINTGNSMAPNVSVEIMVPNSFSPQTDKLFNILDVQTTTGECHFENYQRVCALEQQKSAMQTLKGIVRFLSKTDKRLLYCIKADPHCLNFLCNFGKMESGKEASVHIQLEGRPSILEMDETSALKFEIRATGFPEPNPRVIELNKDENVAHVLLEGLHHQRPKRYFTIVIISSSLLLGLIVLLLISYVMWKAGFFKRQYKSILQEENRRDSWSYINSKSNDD
T1 sequence (P26010 20-798): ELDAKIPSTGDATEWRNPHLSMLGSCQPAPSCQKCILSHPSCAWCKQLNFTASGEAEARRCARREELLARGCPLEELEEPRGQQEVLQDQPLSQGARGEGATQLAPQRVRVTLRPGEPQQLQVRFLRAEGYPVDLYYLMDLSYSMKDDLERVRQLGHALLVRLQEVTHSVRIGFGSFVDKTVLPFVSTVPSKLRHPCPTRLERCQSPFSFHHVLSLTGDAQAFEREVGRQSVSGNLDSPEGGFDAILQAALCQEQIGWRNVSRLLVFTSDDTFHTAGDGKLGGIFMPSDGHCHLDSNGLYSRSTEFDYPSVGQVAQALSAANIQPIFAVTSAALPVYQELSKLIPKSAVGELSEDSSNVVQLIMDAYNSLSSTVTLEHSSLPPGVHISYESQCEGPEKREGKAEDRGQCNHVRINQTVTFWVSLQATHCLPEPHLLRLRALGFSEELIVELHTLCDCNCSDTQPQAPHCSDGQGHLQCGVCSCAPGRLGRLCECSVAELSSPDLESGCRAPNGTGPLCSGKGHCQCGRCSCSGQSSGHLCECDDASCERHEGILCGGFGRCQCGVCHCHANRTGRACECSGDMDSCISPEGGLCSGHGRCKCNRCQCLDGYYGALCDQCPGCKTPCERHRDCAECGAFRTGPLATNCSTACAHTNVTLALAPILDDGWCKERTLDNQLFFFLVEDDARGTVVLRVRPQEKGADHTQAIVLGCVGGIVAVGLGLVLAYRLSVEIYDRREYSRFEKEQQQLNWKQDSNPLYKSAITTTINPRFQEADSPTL
In short: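 RPMI8866 cells were loaded with […] calcein in PBS for 30 min at 37° C. After plate washes with PBS, fluorescence of adherent cells was read, and no-cell control wells were subtracted from each test well to build the dose response.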

[2] = target: T2, integrin α4β1 (RAMOS human cells adhering to VCAM-1) (Homo sapiens, UniProt P05556+P13612); assay: Integrin α4β1-VCAM cell adhesion assay (RAMOS cells); type: cell-based
T2 construct: Ramos cells, which express integrin α4β1; host or cells: RAMOS
T2 sequence (P05556 21-798, one chain of several): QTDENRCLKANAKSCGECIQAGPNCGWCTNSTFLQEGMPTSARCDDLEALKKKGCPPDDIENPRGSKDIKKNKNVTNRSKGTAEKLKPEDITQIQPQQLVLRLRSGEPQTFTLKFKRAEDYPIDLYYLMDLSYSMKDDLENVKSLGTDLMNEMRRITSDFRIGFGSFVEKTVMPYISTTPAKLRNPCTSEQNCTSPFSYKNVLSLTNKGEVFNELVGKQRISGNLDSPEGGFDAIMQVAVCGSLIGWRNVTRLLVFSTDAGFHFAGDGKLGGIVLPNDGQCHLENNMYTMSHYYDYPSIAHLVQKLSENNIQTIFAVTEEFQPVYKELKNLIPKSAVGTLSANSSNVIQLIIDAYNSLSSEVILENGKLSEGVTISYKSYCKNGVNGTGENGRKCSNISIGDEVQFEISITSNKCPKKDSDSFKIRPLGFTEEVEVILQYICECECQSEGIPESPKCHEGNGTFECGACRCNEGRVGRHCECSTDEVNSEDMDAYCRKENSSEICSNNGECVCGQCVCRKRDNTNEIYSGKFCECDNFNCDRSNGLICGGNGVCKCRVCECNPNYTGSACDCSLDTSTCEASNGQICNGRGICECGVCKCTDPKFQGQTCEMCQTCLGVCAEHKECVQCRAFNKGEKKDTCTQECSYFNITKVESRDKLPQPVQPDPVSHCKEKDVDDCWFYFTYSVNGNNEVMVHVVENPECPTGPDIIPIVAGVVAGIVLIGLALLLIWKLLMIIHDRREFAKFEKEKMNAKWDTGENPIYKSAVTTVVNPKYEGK
Procedure: Integrin α4β1-VCAM Cell Adhesion Assay
The plate was incubated overnight at 4° C. and washed twice with 150 μl per well wash buffer (0.05% Tween 20 in PBS), blocked with 250 μl per well blocking buffer (1% non-fat dry milk in PBS), for 1 hour at room temperature. During blocking step, RAMOS cells were resuspended at 10 million cells/ml in PBS containing […] and incubated at 37° C. for 30 min in a 50 ml tube. […] The plate was emptied by inverting and blotting on paper towels and washed manually twice with PBS. […] To calculate the dose response, the fluorescence value of control wells not containing cells was subtracted from each test well.

[3] = RPMI8866 cells adhering to MAdCAM, read-out: RPMI8866 Adhesion α4β7/MAdCAM IC50
[4] = Ramos cells adhering to VCAM, read-out: Ramos Adhesion α4β1/VCAM IC50
[5] = ratio of cell adhesion IC50s, Ramos α4β1/VCAM over RPMI8866 α4β7/MAdCAM

| SMILES | IC50 [1, 3] | IC50 [2, 4] | Ratio Ramos/RPMI [2, 5] | IC50 ([1]; RPMI8866 cells, read-out: IC50 in the RPMI8866 cell adhesion assay) | selectivity α4β7 versus α4β1 cell adhesion assays ([2]; RPMI8866 vs Ramos cell adhesion) | IC50 ([2]; Ramos cells, VCAM, read-out: Ramos Adhesion a4b1/VCAM IC50) | Ratio Ramos/RPMI ([2]; ratio of Ramos a4b1/VCAM adhesion IC50 to RPMI8866 a4b7/MAdCAM adhesion IC50) |
| --- | --- | --- | --- | --- | --- | --- | --- |
| CC(C)C[C@@H]1NC(=O)C[C@H](CCCCN)N(C)C(=O)[C@H](CCCCNC(=O)c2ccccc2-c2ccccc2C(=O)NCCCC[C@@H]2NC(=O)[C@@H]3CCCN3[C@H](C(=O)NC(C)(C)C)[C@H](C)NC(=O)[C@H]([C@@H](C)O)NC(=O)[C@H](CC(=O)O)NC(=O)[C@H](CC(C)C)NC(=O)C[C@H](CCCCN)N(C)C2=O)NC(=O)[C@@H]2CCCN2[C@H](C(=O)NC(C)(C)C)[C@H](C)NC(=O)[C@H]([C@@H](C)O)NC(=O)[C@H](CC(=O)O)NC1=O [Compound 535] | 15 nM | 9510 nM | 634 | – | – | – | – |
| CC(C)C[C@@H]1NC(=O)c2ccc(-c3ccc(N4CCN(C(=O)[C@H](CCCCNC(=O)CCCCCC(=O)NCCCC[C@H](NC(=O)OCc5ccccc5)C(=O)N5CCN(c6ccc(-c7ccc8cc7CNC(=O)[C@@H]7CCCN7[C@H](C(=O)NC(C)(C)C)[C@H](C)NC(=O)[C@H]([C@@H](C)O)NC(=O)[C@H](CC(=O)O)NC(=O)[C@H](CC(C)C)NC8=O)cc6)CC5)NC(=O)OCc5ccccc5)CC4)cc3)c(c2)CNC(=O)[C@@H]2CCCN2[C@H](C(=O)NC(C)(C)C)[C@H](C)NC(=O)[C@H]([C@@H](C)O)NC(=O)[C@H](CC(=O)O)NC1=O [Compound 498] | 36 nM | 1360 nM | – | – | – | – | – |
| CC(C)C[C@@H]1NC(=O)c2ccc(-c3ccc(N4CCN(C(=O)c5ccc(-c6cccc(C(=O)N7CCN(c8ccc(-c9ccc%10cc9CNC(=O)[C@@H]9CCCN9[C@H](C(=O)NC(C)(C)C)[C@H](C)NC(=O)[C@H]([C@@H](C)O)NC(=O)[C@H](CC(=O)O)NC(=O)[C@H](CC(C)C)NC%10=O)cc8)CC7)n6)nc5)CC4)cc3)c(c2)CNC(=O)[C@@H]2CCCN2[C@H](C(=O)NC(C)(C)C)[C@H](C)NC(=O)[C@H]([C@@H](C)O)NC(=O)[C@H](CC(=O)O)NC1=O [Compound 466] | 97 nM | 3240 nM | 34 | – | – | – | – |
| CC(C)C[C@@H]1NC(=O)c2ccc(-c3ccc(N4CCN(CC(=O)N5CCN(c6ccc(-c7ccc8cc7CNC(=O)[C@@H]7CCCN7[C@H](C(=O)NC(C)(C)C)[C@H](C)NC(=O)[C@H]([C@@H](C)O)NC(=O)[C@H](CC(=O)O)NC(=O)[C@H](CC(C)C)NC8=O)cc6)CC5)CC4)cc3)c(c2)CNC(=O)[C@@H]2CCCN2[C@H](C(=O)NC(C)(C)C)[C@H](C)NC(=O)[C@H]([C@@H](C)O)NC(=O)[C@H](CC(=O)O)NC1=O [Compound 481] | 36 nM | 940 nM | 26 | – | – | – | – |
| CC(C)C[C@@H]1NC(=O)c2ccc(-c3ccc(N4CCN(C(=O)CCOCCOCCNC(=O)CCCCCC(=O)NCCOCCOCCC(=O)N5CCN(c6ccc(-c7ccc8cc7CNC(=O)[C@@H]7CCCN7[C@H](C(=O)NC(C)(C)C)[C@H](C)NC(=O)[C@H]([C@@H](C)O)NC(=O)[C@H](CC(=O)O)NC(=O)[C@H](CC(C)C)NC8=O)cc6)CC5)CC4)cc3)c(c2)CNC(=O)[C@@H]2CCCN2[C@H](C(=O)NC(C)(C)C)[C@H](C)NC(=O)[C@H]([C@@H](C)O)NC(=O)[C@H](CC(=O)O)NC1=O [Compound 505] | 59 nM | 1780 nM | 30 | – | – | – | – |
| CC(C)C[C@@H]1NC(=O)c2ccc(-c3ccc(N4CCN(C(=O)c5cc(-c6ccccc6)c(C(=O)N6CCN(c7ccc(-c8ccc9cc8CNC(=O)[C@@H]8CCCN8[C@H](C(=O)NC(C)(C)C)[C@H](C)NC(=O)[C@H]([C@@H](C)O)NC(=O)[C@H](CC(=O)O)NC(=O)[C@H](CC(C)C)NC9=O)cc7)CC6)cc5-c5ccccc5)CC4)cc3)c(c2)CNC(=O)[C@@H]2CCCN2[C@H](C(=O)NC(C)(C)C)[C@H](C)NC(=O)[C@H]([C@@H](C)O)NC(=O)[C@H](CC(=O)O)NC1=O [Compound 469] | 5 nM | 44 nM | – | – | – | – | – |
| CC(C)C[C@@H]1NC(=O)C[C@H](CCCCN)N(C)C(=O)[C@H](CCCCNC(=O)CCCCCCCC(=O)NCCCC[C@@H]2NC(=O)[C@@H]3CCCN3[C@H](C(=O)NC(C)(C)C)[C@H](C)NC(=O)[C@H]([C@@H](C)O)NC(=O)[C@H](CC(=O)O)NC(=O)[C@H](CC(C)C)NC(=O)C[C@H](CCCCN)N(C)C2=O)NC(=O)[C@@H]2CCCN2[C@H](C(=O)NC(C)(C)C)[C@H](C)NC(=O)[C@H]([C@@H](C)O)NC(=O)[C@H](CC(=O)O)NC1=O [Compound 533] | 17 nM | 4230 nM | 257 | – | – | – | – |
| CC(C)C[C@@H]1NC(=O)c2ccc(-c3ccc(N4CCN(C(=O)COCC(=O)N5CCN(c6ccc(-c7ccc8cc7CNC(=O)[C@@H]7CCCN7[C@H](C(=O)NC(C)(C)C)[C@H](C)NC(=O)[C@H]([C@@H](C)O)NC(=O)[C@H](CC(=O)O)NC(=O)[C@H](CC(C)C)NC8=O)cc6)CC5)CC4)cc3)c(c2)CNC(=O)[C@@H]2CCCN2[C@H](C(=O)NC(C)(C)C)[C@H](C)NC(=O)[C@H]([C@@H](C)O)NC(=O)[C@H](CC(=O)O)NC1=O [Compound 390] | 13 nM | 857 nM | 66 | – | – | – | – |
| CC(C)C[C@@H]1NC(=O)c2ccc(-c3ccc(N4CCN(C(=O)[C@H]5CCC[C@H]5C(=O)N5CCN(c6ccc(-c7ccc8cc7CNC(=O)[C@@H]7CCCN7[C@H](C(=O)NC(C)(C)C)[C@H](C)NC(=O)[C@H]([C@@H](C)O)NC(=O)[C@H](CC(=O)O)NC(=O)[C@H](CC(C)C)NC8=O)cc6)CC5)CC4)cc3)c(c2)CNC(=O)[C@@H]2CCCN2[C@H](C(=O)NC(C)(C)C)[C@H](C)NC(=O)[C@H]([C@@H](C)O)NC(=O)[C@H](CC(=O)O)NC1=O [Compound 458] | 42 nM | 990 nM | 23 | – | – | – | – |
| CC(C)C[C@@H]1NC(=O)c2ccc(-c3ccc(N4CCN(C(=O)c5ccc(-c6ccc(C(=O)N7CCN(c8ccc(-c9ccc%10cc9CNC(=O)[C@@H]9CCCN9[C@H](C(=O)NC(C)(C)C)[C@H](C)NC(=O)[C@H]([C@@H](C)O)NC(=O)[C@H](CC(=O)O)NC(=O)[C@H](CC(C)C)NC%10=O)cc8)CC7)cc6)cc5)CC4)cc3)c(c2)CNC(=O)[C@@H]2CCCN2[C@H](C(=O)NC(C)(C)C)[C@H](C)NC(=O)[C@H]([C@@H](C)O)NC(=O)[C@H](CC(=O)O)NC1=O [Compound 474] | 14 nM | 1300 nM | 95 | – | – | – | – |
| CC(C)C[C@@H]1NC(=O)C[C@H](CCCCN)N(C)C(=O)[C@H](CCCCN)NC(=O)[C@@H]2CCCN2[C@H](C(=O)NC(C)(C)C)[C@H](C)NC(=O)[C@H]([C@@H](C)O)NC(=O)[C@H](CC(=O)O)NC1=O [Compound 456] | – | – | – | 199 nM | 45 fold | 8920 nM | 45 |
